From US10294207B2, “Pyrazole derivatives as TNIK, IKKϵ and TBK1 inhibitor and pharmaceutical composition comprising same” (GREEN CROSS CORPORATION, priority 2015, dated 2019)
Counter-ions that a name gives are not always drawn.

Tests used:
IKKε = target: T1, IKKε (Homo sapiens, UniProt Q14164); test: IKKε inhibition, ADP-Glo Kinase Assay; type: biochemical; conditions: luminometer
T1 construct: purchased Invitrogen PR8031B
T1 sequence (Q14164 1-716): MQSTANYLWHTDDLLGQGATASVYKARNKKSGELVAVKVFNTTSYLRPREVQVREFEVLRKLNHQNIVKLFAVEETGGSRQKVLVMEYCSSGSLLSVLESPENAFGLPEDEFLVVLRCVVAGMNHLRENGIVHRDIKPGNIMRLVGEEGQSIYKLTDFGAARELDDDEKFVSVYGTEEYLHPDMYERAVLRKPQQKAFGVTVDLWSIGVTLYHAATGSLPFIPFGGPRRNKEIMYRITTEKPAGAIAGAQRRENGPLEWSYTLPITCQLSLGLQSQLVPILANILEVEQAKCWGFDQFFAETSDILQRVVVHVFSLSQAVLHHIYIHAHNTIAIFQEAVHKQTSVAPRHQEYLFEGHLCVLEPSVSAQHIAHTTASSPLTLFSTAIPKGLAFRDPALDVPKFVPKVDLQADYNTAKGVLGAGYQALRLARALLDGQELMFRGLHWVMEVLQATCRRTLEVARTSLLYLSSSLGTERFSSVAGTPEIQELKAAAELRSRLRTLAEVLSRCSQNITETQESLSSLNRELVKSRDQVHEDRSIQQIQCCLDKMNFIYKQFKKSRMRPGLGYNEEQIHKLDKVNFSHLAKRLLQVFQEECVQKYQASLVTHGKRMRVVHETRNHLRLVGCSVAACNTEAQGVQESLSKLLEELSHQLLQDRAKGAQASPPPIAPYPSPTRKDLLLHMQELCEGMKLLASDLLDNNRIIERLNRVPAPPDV
Procedure, shortened: (§1)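 Each recombinant kinase enzyme system was run per the manufacturer's protocol in 40 mM Tris pH 7.5, 20 mM MgCl2 and 0.1 mg/mL BSA. Kinase activity was detected as ADP formation by ADP-Glo luminescence.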

TBK1 = target: T2, TBK1 (Homo sapiens, UniProt Q9UHD2); test: TBK1 inhibition, ADP-Glo Kinase Assay; type: biochemical; conditions: luminometer
T2 construct: purchased Promega V3991
T2 sequence (Q9UHD2 1-729): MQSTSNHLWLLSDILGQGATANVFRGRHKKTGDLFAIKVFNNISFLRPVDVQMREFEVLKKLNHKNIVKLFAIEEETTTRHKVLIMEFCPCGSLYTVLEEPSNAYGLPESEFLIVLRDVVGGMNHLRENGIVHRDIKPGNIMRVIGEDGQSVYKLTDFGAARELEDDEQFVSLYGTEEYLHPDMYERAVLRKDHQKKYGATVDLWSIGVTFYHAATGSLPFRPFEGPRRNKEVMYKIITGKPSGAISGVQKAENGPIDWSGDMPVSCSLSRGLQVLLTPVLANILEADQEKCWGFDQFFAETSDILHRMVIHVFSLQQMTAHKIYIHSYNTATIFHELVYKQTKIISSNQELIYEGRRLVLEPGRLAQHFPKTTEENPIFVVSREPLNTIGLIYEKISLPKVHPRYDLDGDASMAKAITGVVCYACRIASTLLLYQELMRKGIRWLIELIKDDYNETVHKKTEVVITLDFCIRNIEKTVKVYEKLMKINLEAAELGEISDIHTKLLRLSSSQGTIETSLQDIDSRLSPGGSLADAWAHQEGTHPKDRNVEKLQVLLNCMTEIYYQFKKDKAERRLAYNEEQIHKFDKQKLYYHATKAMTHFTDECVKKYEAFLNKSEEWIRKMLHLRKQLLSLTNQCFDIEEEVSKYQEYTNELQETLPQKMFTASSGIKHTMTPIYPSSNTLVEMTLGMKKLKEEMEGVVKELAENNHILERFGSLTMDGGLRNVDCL
Procedure, shortened: as §1

Structure (SMILES) | IC50 (IKKε) | IC50 (TBK1)
CN1CCN(c2ccc(C(=O)Nc3n[nH]c4ccc(C(=O)NCc5cccnc5)cc34)cc2)CC1 [Example 57, 3-(4-(4-Methylpiperazin-1-yl)benzamido)-N-(pyridin-3-ylmethyl)-1H-indazole-5-carboxamide bis(2,2,2-trifluoroacetate)] | 0.14 µM | 0.0012 µM
N#CC1(NC(=O)c2ccc3[nH]nc(NC(=O)c4ccc(F)cc4)c3c2)CC1 [Example 16, N-(1-Cyanocyclopropyl)-3-(4-fluorobenzamido)-1H-indazole-5-carboxamide] | 0.91 µM | 0.39 µM
C[C@H]1CN(c2ccc(C(=O)Nc3n[nH]c4ccc(C(=O)NC5(c6ccccc6)CC5)cc34)cc2)CCN1 [Example 76, (S)-3-(4-(3-Methylpiperazin-1-yl)benzamido)-N-(1-phenylcyclopropyl)-1H-indazole-5-carboxamide] | 0.016 µM | 0.0046 µM
CC(NC(=O)c1ccc2[nH]nc(NC(=O)c3ccc(N4CCN[C@@H](C)C4)cc3)c2c1)c1ccccc1 (stereo partly drawn) [Example 184, 3-(4-((8)-3-Methylpiperazin-1-yl)benzamido)-N-(1-phenylethyl)-1H-indazole-5-carboxamide 2,2,2-trifluoroacetate] | 0.015 µM | 0.0037 µM
CCC(NC(=O)c1ccc2[nH]nc(NC(=O)c3ccc(N4CCN(CC)CC4)cc3)c2c1)c1cccs1 (stereo not drawn) [Example 109, 3-(4-(4-Ethylpiperazin-1-yl)benzamido)-N-(1-(thiophen-2-yl)propyl)-1H-indazole-5-carboxamide] | 0.025 µM | 0.0036 µM
CC(NC(=O)c1ccc2[nH]nc(NC(=O)c3ccc(N4CCN[C@H](C)C4)cc3)c2c1)c1ccccc1 (stereo partly drawn) [Example 185, 3-(4-((R)-3-Methylpiperazin-1-yl)benzamido)-N-(1-phenylethyl)-1H-indazole-5-carboxamide 2,2,2-trifluoroacetate] | 0.019 µM | 0.0033 µM
CCC(NC(=O)c1ccc2[nH]nc(NC(=O)c3ccc(N4CCN[C@H](C)C4)cc3)c2c1)c1cccs1 (stereo partly drawn) [Example 98, 3-(4-((R)-3-Methylpiperazin-1-yl)benzamido)-N-(1-(thiophen-2-yl)propyl)-1H-indazole-5-carboxamide 2,2,2-trifluoroacetate] | 0.023 µM | 0.003 µM
CN1CCN(c2ccc(C(=O)Nc3n[nH]c4ccc(C(=O)NCc5ccc(C(F)(F)F)nc5)cc34)cc2)CC1 [Example 72, 3-(4-(4-Methylpiperazin-1-yl)benzamido)-N-((6-(trifluoromethyl)pyridin-3-yl)methyl)-1H-indazole-5-carboxamide] | 1.83 µM | 0.35 µM
CC1CN(c2ccc(C(=O)Nc3n[nH]c4ccc(C(=O)NCc5cccs5)cc34)cc2)CC(C)N1 (stereo not drawn) [Example 89, 3-(4-(3,5-Dimethylpiperazin-1-yl)benzamido)-N-(thiophen-2-ylmethyl)-1H-indazole-5-carboxamide 2,2,2-trifluoroacetate] | 0.079 µM | 0.0056 µM
CN1CCN(c2ccc(C(=O)Nc3n[nH]c4ccc(C(=O)NC5(c6cccs6)CC5)cc34)cc2)CC1 [Example 49, 3-(4-(4-Methylpiperazin-1-yl)benzamido)-N-(1-(thiophen-2-yl)cyclopropyl)-1H-indazole-5-carboxamide] | 0.0034 µM | 0.0025 µM
CC[C@H](NC(=O)c1ccc2[nH]nc(NC(=O)c3ccc(N4CCN(C)CC4)cc3)c2c1)c1ccccc1 [Example 190, (S)-3-(4-(4-Methylpiperazin-1-yl)benzamido)-N-(1-phenylpropyl)-1H-indazole-5-carboxamide] | 1.23 µM | 0.34 µM
CN1CCN(c2ccc(C(=O)Nc3n[nH]c4ccc(C(=O)NCc5ccsc5)cc34)cc2)CC1 [Example 47, 3-(4-(4-Methylpiperazin-1-yl)benzamido)-N-(thiophen-3-ylmethyl)-1H-indazole-5-carboxamide] | 0.014 µM | 0.0014 µM
CC(C)(NC(=O)c1ccc2[nH]nc(NC(=O)c3ccc(N4CCOCC4)cc3)c2c1)c1ccccc1 [Example 62, 3-(4-Morpholinobenzamido)-N-(2-phenylpropan-2-yl)-1H-indazole-5-carboxamide] | 0.032 µM | 0.011 µM
O=C(NCc1nccs1)c1ccc2[nH]nc(NC(=O)c3ccc(N4CCOCC4)cc3)c2c1 [Example 104, 3-(4-Morpholinobenzamido)-N-(thiazol-2-ylmethyl)-1H-indazole-5-carboxamide 2,2,2-trifluoroacetate] | 0.37 µM | 0.026 µM
CN1CCN(c2ccc(C(=O)Nc3n[nH]c4ccc(C(=O)NC5(c6cccs6)CCCCC5)cc34)cc2)CC1 [Example 147, 3-(4-(4-Methylpiperazin-1-yl)benzamido)-N-(1-(thiophen-2-yl)cyclohexyl)-1H-indazole-5-carboxamide] | 0.34 µM | 0.11 µM
CCC(NC(=O)c1ccc2[nH]nc(NC(=O)c3ccc(N4CCN(C(C)=O)CC4)cc3)c2c1)c1ccsc1 (stereo not drawn) [Example 209, 3-(4-(4-Acetylpiperazin-1-yl)benzamido)-N-(1-(thiophen-3-yl)propyl)-1H-indazole-5-carboxamide] | 0.015 µM | 0.0029 µM
COc1ccc(C(=O)Nc2n[nH]c3ccc(C(=O)NCc4cccs4)cc23)nc1 [Example 8, 3-(5-Methoxypicolinamido)-N-(thiophen-2-ylmethyl)-1H-indazole-5-carboxamide Hydrochloride] | 0.33 µM | 0.082 µM
CC1CN(c2ccc(C(=O)Nc3n[nH]c4ccc(C(=O)NC(C)c5ccccc5)cc34)cc2)CC(C)N1 (stereo not drawn) [Example 182, 3-(4-(3,5-Dimethylpiperazin-1-yl)benzamido)-N-(1-phenylethyl)-1H-indazole-5-carboxamide] | 0.0081 µM | 0.003 µM
CCCC(NC(=O)c1ccc2[nH]nc(NC(=O)c3ccc(F)cc3)c2c1)c1cccs1 (stereo not drawn) [Example 18, 3-(4-Fluorobenzamido)-N-(1-(thiophen-2-yl)butyl)-1H-indazole-5-carboxamide] | 1.23 µM | 0.21 µM
O=C(NCc1cccs1)c1ccc2[nH]nc(NC(=O)c3cccc(N4CCOCC4)c3)c2c1 [Example 156, 3-(3-Morpholinobenzamido)-N-(thiophen-2-ylmethyl)-1H-indazole-5-carboxamide] | 0.29 µM | 0.077 µM
CC(NC(=O)c1ccc2[nH]nc(NC(=O)c3ccc(N4CCN(C)CC4)cc3)c2c1)c1cccs1 (stereo not drawn) [Example 44, 3-(4-(4-Methylpiperazin-1-yl)benzamido)-N-(1-(thiophen-2-yl)ethyl)-1H-indazole-5-carboxamide] | 0.0031 µM | 0.0035 µM
CC(NC(=O)c1ccc2[nH]nc(NC(=O)c3ccc(N4CCN(C)CC4)cc3)c2c1)c1ccco1 (stereo not drawn) [Example 81, N-(1-(Furan-2-yl)ethyl)-3-(4-(4-methylpiperazin-1-yl)benzamido)-1H-indazole-5-carboxamide] | 0.021 µM | 0.0039 µM
O=C(Nc1n[nH]c2ccc(C(=O)NC3(c4ccccc4)CC3)cc12)c1ccc(N2CCOCC2)cc1 [Example 67, 3-(4-Morpholinobenzamido)-N-(1-phenylcyclopropyl)-1H-indazole-5-carboxamide] | 0.005 µM | 0.003 µM
CCC(NCc1ccc2[nH]nc(NC(=O)c3ccc(F)cc3)c2c1)c1cccs1 (stereo not drawn) [Example 32] | > 10 µM | > 10 µM
